Measurements reported in patent US6165770A, “Alkaline stable amylase from Thermoalcalibacter” (Novo Nordisk A/S, priority 1996, dated 2000).
Where a name gives a salt, the structure may show the parent alone.

biological target: T1, α-amylase from Thermoalcalibacter bogoriae (Anaerobranca gottschalkii, UniProt Q5I942); experiment: Effect of metal ions and chemical reagents on amylase activity; assay type: biochemical; conditions: pH 8
T1 sequence (Q5I942 24-532): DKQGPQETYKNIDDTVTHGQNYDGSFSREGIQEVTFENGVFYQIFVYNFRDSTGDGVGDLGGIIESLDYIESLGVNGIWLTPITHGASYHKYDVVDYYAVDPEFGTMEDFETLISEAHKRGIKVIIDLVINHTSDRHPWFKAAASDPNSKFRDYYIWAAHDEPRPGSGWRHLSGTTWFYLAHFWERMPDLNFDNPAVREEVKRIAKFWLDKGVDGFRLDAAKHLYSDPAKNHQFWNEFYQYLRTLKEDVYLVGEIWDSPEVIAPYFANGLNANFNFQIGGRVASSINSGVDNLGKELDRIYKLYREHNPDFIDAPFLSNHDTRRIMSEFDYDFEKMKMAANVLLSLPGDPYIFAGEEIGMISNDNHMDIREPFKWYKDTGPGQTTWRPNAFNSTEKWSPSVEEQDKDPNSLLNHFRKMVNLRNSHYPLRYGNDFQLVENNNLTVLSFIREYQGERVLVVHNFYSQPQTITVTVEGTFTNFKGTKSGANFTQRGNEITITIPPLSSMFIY
Procedure: The effect of metal ions on the activity of the amylase of the present invention was examined by pre-incubating the enzyme together with metal ions for 30 min. at 65° C., pH 8.0 in a substrate solution containing (wt/vol) soluble starch (0.5%). Subsequently an enzyme assay was performed at 65° C. for 30 min in order to determine the residual activity of the amylase. For further details see working example herein (vide infra) and FIG. 4.
The amylase activity was measured at pH 8.0 -higher pH would interfere with metal ion solutions- and 65° C. in presence of various metal ions at 1 mM, 2 mM and 5 mM concentration and in presence of some chemical reagents (FIG. 4).

Compound | effect of metal ions on amylase activity
O=C(O)CN(CCN(CC(=O)O)CC(=O)O)CC(=O)O [EDTA] | not or only slightly inhibited

same assay, conditions: pH 8.0, 65° C., 1 mM, 2 mM and 5 mM

Compound | effect of metal ions on amylase activity
[Zn+2] [Zn^2+] | Moderate inhibition
[Cr+6] [Cr^6+] | Strong inhibition
[Ca+2] [Ca^2+] | not or only slightly inhibited
[Ni+2] [Ni^2+] | Moderate inhibition
[Mg+2] [Mg^2+] | Moderate inhibition
[Fe+2] [Fe^2+] | Strong inhibition

Other lines, results leading:

effect of metal ions on amylase activity | Compound
Strong inhibition | [Cu+2] [Cu^2+]
not or only slightly inhibited | [Co+2] [Co^2+]
Strong inhibition | [V+4] [V^4+]
moderate stimulation | [Mn+2] [Mn^2+]

same assay, conditions: pH 8.0, 65° C., 5 mM

Compound | effect of chemical reagents on amylase activity at 5 mM
OC(CS)C(O)CS (stereo not drawn) [DTT] | totally inhibited
CCCCCCCCCCCCOS(=O)(=O)O [SDS] | totally inhibited
N=C(N)N [Guanidine-HCl] | stimulatory effect
NCCc1ccc(S(=O)(=O)F)cc1 [Pefabloc SC] | did not interfer
